# Results as given in patent publication US20260209286A1, “SEA CUCUMBER-DERIVED HOLOTOCIN PEPTIDE AND USES THEREOF” (NATIONAL MARINE BIODIVERSITY INSTITUTE OF KOREA, priority 2022, published 2026).
# Read-outs that look alike come from different tables or passages of the source. Where a SMILES comes first, the peptide text is derived from it. Bridges are numbered along the chain shown (N, C = ends). Where no end group is shown, it is not given here.
# Legend:
# [1] = tested on: epidermal keratinocytes HaCaT; assay: CCK-8 cytotoxicity assay in HaCaT cells; settings: 10, 1 and 0.1 μM, 24 and 72 hours
# kidney cell line 293T [2] = assay: CCK-8 cytotoxicity assay in 293T cells; settings: 10, 1 and 0.1 μM, 24 and 72 hours
# Oct4 = assay: RT-PCR of regeneration-related gene Oct4 in HaCaT skin cells; assay type: cell-based; settings: 1 μM, 24 hours
# Sox2 = assay: RT-PCR of regeneration-related gene Sox2 in HaCaT skin cells; assay type: cell-based; settings: 1 μM, 24 hours
# rat hypothalamic neurons = settings: cited from earlier work
# [3] = tested on: epidermal keratinocytes HaCaT
# kidney cell line 293T [4] = tested on: kidney cell line 293T
# kidney cell line 293T [5] = assay: Size of stem cell spheroids formed in 293T cells; assay type: cell-based; settings: 10, 1 and 0.1 μM, cultured 10 days
# Description: (§1) For the formation of spheroids, the cells prepared in Preparation Example 2 were cultured in Aggrewell 800 plates pretreated with an anti-Adherence rinsing solution, using a DMEM-F12 medium containing a stem cell-permissive medium supplemented with 20 ng/ml EGF, 20 ng/ml basic fibroblast growth factor (bFGf), and B27 Serum-free Supplement (50×; Invitrogen).
# (§2) After the culture period, the spheroids were observed under a microscope, and approximately 25 spheroids were measured.
# (§3) Specifically, FIGS. 5 to 8 show the results of adding the peptides prepared in Preparation Example 1 to the renal cell line 293T, and FIGS. 9 to 12 show the results of adding the same peptides to the epidermal keratinocytes HaCaT.
# [6] = tested on: epidermal keratinocytes HaCaT; assay: Size of stem cell spheroids formed in HaCaT cells; assay type: cell-based; settings: 10, 1 and 0.1 μM, cultured 10 days
# Description: as §1, §2, §3
compound,measurement,setting,value
"CC[C@H](C)[C@@H]1NC(=O)[C@H](Cc2ccccc2)NC(=O)[C@@H](N)CSSC[C@@H](C(=O)N2CCC[C@H]2C(=O)N[C@@H](CC(C)C)C(=O)NCC(N)=O)NC(=O)[C@H](CC(N)=O)NC(=O)[C@H]([C@@H](C)O)NC1=O [Holotocin(HLT), Holotocin] (H-CFITNCPLG-NH2; disulfide 1-6)",cytotoxicity / cell viability,[1],no changes in cytotoxicity or cell proliferation
same,cytotoxicity / cell viability,kidney cell line 293T [2],no changes in cytotoxicity or cell proliferation
"CC[C@H](C)[C@@H]1NC(=O)[C@H](Cc2ccc(O)cc2)NC(=O)[C@@H](N)CSSC[C@@H](C(=O)N2CCC[C@H]2C(=O)N[C@@H](CC(C)C)C(=O)NCC(N)=O)NC(=O)[C@H](CC(N)=O)NC(=O)[C@H](CCC(N)=O)NC1=O [Oxytocin(OXT), Oxytocin]",expression of stemness-related gene Oct4,"Oct4; HaCaT, RT-PCR",induces the expression
same,expression of stemness-related gene Sox2,"Sox2; HaCaT, RT-PCR",induces the expression
same,size of spheroids,"rat hypothalamic neurons; rat hypothalamic neurons, Salehi et al. 2021",increase the size of spheroids
same,cytotoxicity / cell viability,[1],no changes in cytotoxicity or cell proliferation
same,cytotoxicity / cell viability,kidney cell line 293T [2],no changes in cytotoxicity or cell proliferation
"NC(=O)CC[C@@H]1NC(=O)[C@H](Cc2ccccc2)NC(=O)[C@H](Cc2ccc(O)cc2)NC(=O)[C@@H](N)CSSC[C@@H](C(=O)N2CCC[C@H]2C(=O)N[C@@H](CCCN=C(N)N)C(=O)NCC(N)=O)NC(=O)[C@H](CC(N)=O)NC1=O [Vasopressin(AVP), Vasopressin]",expression of stemness-related gene Oct4,Oct4,induces the expression
same,expression of stemness-related gene Sox2,Sox2,induces the expression
same,size of spheroids,rat hypothalamic neurons,increase the size of spheroids
same,cytotoxicity / cell viability,[3],no changes in cytotoxicity or cell proliferation
same,cytotoxicity / cell viability,kidney cell line 293T [4],no changes in cytotoxicity or cell proliferation
"Octopressin (CFWTNCPVG-NH2; ends and bridges not checked; listed as Octopus vulgaris) [Octopressin(OTP), peptide derived from Octopus minor, hormone similar to oxytocin]",change in the size of the stem cell spheroids (in words),kidney cell line 293T [5],little or no change in the size
same,cytotoxicity / cell viability,[1],no changes in cytotoxicity or cell proliferation
same,cytotoxicity / cell viability,kidney cell line 293T [2],no changes in cytotoxicity or cell proliferation
same,change in the size of the stem cell spheroids (in words),[6],little or no change in the size
